{"source": "ChEMBL document CHEMBL4334553", "about": "“Discovery of Hydroxyamidine Based Inhibitors of IDO1 for Cancer Immunotherapy with Reduced Potential for Glucuronidation” (ACS Med Chem Lett, 2020)", "key": {"Cytochrome P450 2D6": {"target": "Cytochrome P450 2D6 (Homo sapiens, UniProt P10635)", "sequence (P10635 whole entry)": "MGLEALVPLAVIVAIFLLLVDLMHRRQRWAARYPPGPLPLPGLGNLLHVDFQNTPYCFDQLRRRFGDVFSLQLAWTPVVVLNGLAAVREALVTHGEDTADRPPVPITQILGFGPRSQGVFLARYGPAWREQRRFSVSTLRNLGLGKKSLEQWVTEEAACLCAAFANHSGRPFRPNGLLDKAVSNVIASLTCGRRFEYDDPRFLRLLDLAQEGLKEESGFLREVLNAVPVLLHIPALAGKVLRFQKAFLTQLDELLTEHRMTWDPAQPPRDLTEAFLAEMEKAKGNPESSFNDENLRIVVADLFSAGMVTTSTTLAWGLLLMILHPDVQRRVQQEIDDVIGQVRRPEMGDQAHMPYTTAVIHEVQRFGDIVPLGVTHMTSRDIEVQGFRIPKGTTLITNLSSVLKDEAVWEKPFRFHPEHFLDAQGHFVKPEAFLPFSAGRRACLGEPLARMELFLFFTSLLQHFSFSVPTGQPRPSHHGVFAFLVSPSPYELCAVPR", "test": "Inhibition of CYP2D6 (unknown origin)", "assay_type": "ADME"}, "[1]": {"test": "AUC (0 to 24 hrs) in rat at 5 mg/kg, po administered as single dose by capillary micro-sampling analysis", "assay_type": "ADME, organism-based", "design": "dose 5 mg/kg, time < 24 hr, route oral", "details": "in vivo"}, "Mus musculus": {"test_system": "Mus musculus", "test": "In vivo inhibition of IDO1 in C57BL/6J mouse assessed as reduction in LPS-induced kynurenine level in plasma at 100 mg/kg, po administered via gavage measured after 24 hrs by LC-MS/MS analysis", "assay_type": "functional, organism-based"}, "[2]": {"test": "Protein binding in human plasma", "assay_type": "ADME, cell-free", "details": "read-out: PPB (converted)"}, "Cytochrome P450 3A4": {"target": "Cytochrome P450 3A4 (Homo sapiens, UniProt P08684)", "sequence (P08684 whole entry)": "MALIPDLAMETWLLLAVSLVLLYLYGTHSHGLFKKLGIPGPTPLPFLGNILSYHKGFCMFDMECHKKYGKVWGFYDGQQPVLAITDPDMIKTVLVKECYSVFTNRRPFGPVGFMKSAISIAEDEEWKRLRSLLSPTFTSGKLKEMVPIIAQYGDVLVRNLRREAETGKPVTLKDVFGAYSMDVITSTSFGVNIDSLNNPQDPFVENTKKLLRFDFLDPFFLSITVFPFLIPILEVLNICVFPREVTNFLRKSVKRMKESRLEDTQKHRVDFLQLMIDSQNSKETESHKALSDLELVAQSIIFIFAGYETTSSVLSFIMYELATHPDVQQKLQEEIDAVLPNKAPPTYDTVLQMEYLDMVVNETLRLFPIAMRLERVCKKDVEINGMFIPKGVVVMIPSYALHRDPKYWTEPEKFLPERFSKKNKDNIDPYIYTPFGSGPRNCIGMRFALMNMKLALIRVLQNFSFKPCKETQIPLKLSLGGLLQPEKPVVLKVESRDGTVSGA", "test": "Inhibition of CYP3A4 (unknown origin)", "assay_type": "ADME"}, "[3]": {"test": "AUC in humanized PXB-mouse assessed as ratio of glucuronide to parent compound at 10 mg/kg, po administered as single dose", "assay_type": "ADME, organism-based", "details": "in vivo"}, "Cytochrome P450 2C19": {"target": "Cytochrome P450 2C19 (Homo sapiens, UniProt P33261)", "sequence (P33261 whole entry)": "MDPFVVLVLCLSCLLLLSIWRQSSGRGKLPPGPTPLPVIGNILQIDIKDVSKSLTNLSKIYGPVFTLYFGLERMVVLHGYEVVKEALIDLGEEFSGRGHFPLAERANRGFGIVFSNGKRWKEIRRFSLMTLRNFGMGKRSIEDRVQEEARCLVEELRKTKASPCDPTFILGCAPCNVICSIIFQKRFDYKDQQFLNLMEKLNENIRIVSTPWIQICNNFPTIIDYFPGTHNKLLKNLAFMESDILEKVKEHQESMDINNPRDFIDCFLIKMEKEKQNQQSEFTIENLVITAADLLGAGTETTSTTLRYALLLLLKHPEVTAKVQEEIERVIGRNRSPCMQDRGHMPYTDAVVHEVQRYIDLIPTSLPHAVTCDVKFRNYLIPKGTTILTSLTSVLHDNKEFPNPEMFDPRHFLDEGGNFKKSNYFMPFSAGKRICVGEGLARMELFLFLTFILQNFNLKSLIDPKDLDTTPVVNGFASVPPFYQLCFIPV", "test": "Inhibition of CYP2C19 (unknown origin)", "assay_type": "ADME"}, "[4]": {"test": "Half life in mouse liver microsomes", "assay_type": "ADME, Microsome"}, "[5]": {"test": "Volume of distribution in rat at 1 mg/kg, iv administered as single dose by capillary micro-sampling analysis", "assay_type": "ADME, organism-based", "details": "in vivo"}, "[6]": {"target": "Tryptophan 2,3-dioxygenase (Homo sapiens, UniProt P48775)", "sequence (P48775 whole entry)": "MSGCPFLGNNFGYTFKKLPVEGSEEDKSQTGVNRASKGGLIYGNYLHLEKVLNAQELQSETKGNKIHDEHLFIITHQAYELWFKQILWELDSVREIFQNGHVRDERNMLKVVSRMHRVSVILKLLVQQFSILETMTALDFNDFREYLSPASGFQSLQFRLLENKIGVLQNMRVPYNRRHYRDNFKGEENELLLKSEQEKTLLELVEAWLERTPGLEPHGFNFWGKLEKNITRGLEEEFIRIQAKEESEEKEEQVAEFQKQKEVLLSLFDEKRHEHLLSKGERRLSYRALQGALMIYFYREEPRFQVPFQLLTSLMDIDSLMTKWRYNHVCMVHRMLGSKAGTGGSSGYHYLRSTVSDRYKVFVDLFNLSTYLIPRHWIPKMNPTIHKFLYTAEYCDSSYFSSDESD", "test": "Inhibition of TDO in human HEK cells", "assay_type": "cell-based"}, "[7]": {"test": "Protein binding in rat plasma", "assay_type": "ADME, cell-free", "details": "read-out: PPB (converted)"}, "[8]": {"target": "T1, Indoleamine 2,3-dioxygenase 1 (Homo sapiens, UniProt P14902)", "T1 sequence (P14902 whole entry)": "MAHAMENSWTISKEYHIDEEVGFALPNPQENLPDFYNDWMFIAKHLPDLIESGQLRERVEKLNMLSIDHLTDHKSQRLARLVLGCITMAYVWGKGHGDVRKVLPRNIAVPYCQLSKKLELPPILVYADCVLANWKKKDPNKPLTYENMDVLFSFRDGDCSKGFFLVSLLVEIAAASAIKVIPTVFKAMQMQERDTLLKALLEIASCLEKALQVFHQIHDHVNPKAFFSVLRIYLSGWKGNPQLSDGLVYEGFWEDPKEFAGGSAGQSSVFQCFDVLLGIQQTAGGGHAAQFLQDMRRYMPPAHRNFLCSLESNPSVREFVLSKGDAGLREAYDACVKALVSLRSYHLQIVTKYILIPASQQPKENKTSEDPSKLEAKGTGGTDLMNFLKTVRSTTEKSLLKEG", "test": "Inhibition of IDO1 in interferon-gamma-induced human SKOV3 cells assessed as N-formylkynurenine formation using L-tryptophan as substrate measured after 24 hrs by fluorescence assay"}, "[9]": {"test": "Cmax in rat at 5 mg/kg, po administered as single dose by capillary micro-sampling analysis", "assay_type": "ADME, organism-based", "design": "dose 5 mg/kg, route oral", "details": "in vivo"}, "CT26 [10]": {"test_system": "CT26", "test": "Antitumor activity against mouse CT26 cells implanted in immunocompetent BALB/c mouse assessed as reduction in tumour growth at 100 mg/kg, po administered twice daily over 15 days starting from day 10 post implantation measured thrice per week by digital caliper method", "assay_type": "functional, organism-based"}, "[11]": {"test": "AUC (0 to 24 hrs) in mouse at 10 mg/kg, po by capillary micro-sampling analysis", "assay_type": "ADME, organism-based", "design": "dose 10 mg/kg, time < 24 hr, route oral", "details": "in vivo"}, "[12]": {"target": "T1, Indoleamine 2,3-dioxygenase 1", "test": "Inhibition of human N-terminal GST-tagged IDO1 expressed in Escherichia coli Rosetta(DE3) pLysS using L-tryptophan as substrate measured after 1 hr by fluorescence assay"}, "[13]": {"test": "Half life in mouse at 10 mg/kg, po by capillary micro-sampling analysis", "assay_type": "ADME, organism-based", "details": "in vivo"}, "[14]": {"test": "Oral bioavailability in rat at 5 mg/kg administered as single dose by capillary micro-sampling analysis", "assay_type": "ADME, organism-based", "details": "in vivo"}, "[15]": {"test": "Half life in human liver microsomes", "assay_type": "ADME, Microsome"}, "[16]": {"test": "Cmax in humanized PXB-mouse assessed as ratio of glucuronide to parent compound at 10 mg/kg, po administered as single dose", "assay_type": "ADME, organism-based", "details": "in vivo"}, "[17]": {"test": "Half-life in rat at 1 mg/kg, iv administered as single dose by capillary micro-sampling analysis", "assay_type": "ADME, organism-based", "details": "in vivo"}, "CT26 [18]": {"test_system": "CT26", "test": "Synergistic antitumor activity against mouse CT26 cells implanted in immunocompetent BALB/c mouse assessed as survival at […] at 100 mg/kg, po administered twice daily over 15 days starting from day 10 post implantation in presence of CTLA-4 antibody at 100 ug, ip administered at day 3,6,9 measured thrice per week and monitored for 45 days", "assay_type": "functional, organism-based"}, "Cytochrome P450 2C9": {"target": "Cytochrome P450 2C9 (Homo sapiens, UniProt P11712)", "sequence (P11712 whole entry)": "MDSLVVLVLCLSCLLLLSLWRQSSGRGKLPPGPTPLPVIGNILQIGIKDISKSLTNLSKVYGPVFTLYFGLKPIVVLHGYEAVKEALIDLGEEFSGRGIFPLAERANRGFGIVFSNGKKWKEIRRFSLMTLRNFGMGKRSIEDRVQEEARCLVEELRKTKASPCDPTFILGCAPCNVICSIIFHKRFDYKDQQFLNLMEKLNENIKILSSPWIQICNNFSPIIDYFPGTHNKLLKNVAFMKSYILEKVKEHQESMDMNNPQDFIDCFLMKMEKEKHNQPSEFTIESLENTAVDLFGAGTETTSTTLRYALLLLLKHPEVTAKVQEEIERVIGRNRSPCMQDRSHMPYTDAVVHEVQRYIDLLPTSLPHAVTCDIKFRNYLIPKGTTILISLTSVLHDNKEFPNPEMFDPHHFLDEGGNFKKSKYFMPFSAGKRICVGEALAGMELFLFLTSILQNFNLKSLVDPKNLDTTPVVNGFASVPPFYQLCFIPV", "test": "Inhibition of CYP2C9 (unknown origin)", "assay_type": "ADME"}, "[19]": {"test": "Protein binding in mouse plasma", "assay_type": "ADME, cell-free", "details": "read-out: PPB (converted)"}, "[20]": {"test": "Clearance in rat at 1 mg/kg, iv administered as single dose by capillary micro-sampling analysis", "assay_type": "ADME, organism-based", "details": "in vivo"}, "[21]": {"test": "Cmax in mouse at 10 mg/kg, po by capillary micro-sampling analysis", "assay_type": "ADME, organism-based", "design": "dose 10 mg/kg, route oral", "details": "in vivo"}, "[22]": {"target": "T1, Indoleamine 2,3-dioxygenase 1", "test": "Inhibition IDO1 in LPS/IFN-gamma stimulated human whole blood assessed as reduction in tryptophan/kynurenine level preincubated for 15 mins followed by LPS/IFN-gamma stimulation measured after 20 hrs by LC-MS/MS analysis", "assay_type": "tissue-based"}, "[23]": {"test": "Half life in rat liver microsomes", "assay_type": "ADME, Microsome"}, "CT26 [24]": {"test_system": "CT26", "test": "Synergistic antitumor activity against mouse CT26 cells implanted in immunocompetent BALB/c mouse assessed as reduction in tumour growth at 100 mg/kg, po administered twice daily over 15 days starting from day 10 post implantation in presence of CTLA-4 antibody at 100 ug, ip administered at day 3,6,9 measured thrice per week by digital caliper method and monitored for 45 days", "assay_type": "functional, organism-based"}, "UGT1A9": {"target": "T2, UGT1A9 (Homo sapiens, UniProt O60656)", "T2 sequence (O60656 whole entry)": "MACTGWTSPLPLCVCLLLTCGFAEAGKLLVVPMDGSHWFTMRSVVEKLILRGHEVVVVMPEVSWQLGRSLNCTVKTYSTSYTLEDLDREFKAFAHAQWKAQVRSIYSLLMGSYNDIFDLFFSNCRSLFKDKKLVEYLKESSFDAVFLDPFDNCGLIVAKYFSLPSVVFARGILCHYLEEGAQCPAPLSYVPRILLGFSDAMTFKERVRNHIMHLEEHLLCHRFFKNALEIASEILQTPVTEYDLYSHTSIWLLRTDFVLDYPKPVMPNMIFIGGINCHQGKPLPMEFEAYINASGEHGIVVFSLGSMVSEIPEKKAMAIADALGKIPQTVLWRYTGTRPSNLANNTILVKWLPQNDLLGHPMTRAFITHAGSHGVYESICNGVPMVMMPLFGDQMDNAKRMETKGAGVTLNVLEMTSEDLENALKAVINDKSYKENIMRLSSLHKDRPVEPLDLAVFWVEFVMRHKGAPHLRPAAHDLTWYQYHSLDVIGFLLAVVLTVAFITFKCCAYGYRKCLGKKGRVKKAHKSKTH", "test": "Stability assessed as recombinant UGT1A9 (unknown origin) mediated compound glucuronidation by measuring half-life at 1 uM incubated in water bath by shaking at 37 degree C measured upto 60 mins in presence of UDPGA by LC-MS/MS analysis", "assay_type": "ADME"}}, "note": "Active and inactive are the calls of the source. No cut-off for these calls is given here.", "data": [{"smiles": "NS(=O)(=O)CC(=O)NCCSc1nonc1/C(=N/O)Nc1cccc(Cl)c1", "values": [{"measurement": "IC50", "setting": "Cytochrome P450 2D6", "result": "> 10000", "unit": "nM"}, {"measurement": "AUC(0-t) at 24 h", "setting": "[1]", "result": 26, "unit": "µM·h"}, {"measurement": "inhibition", "setting": "Mus musculus", "result": "Active"}, {"measurement": "fraction unbound", "setting": "[2]", "result": 0.046}, {"measurement": "IC50", "setting": "Cytochrome P450 3A4", "result": "> 10000", "unit": "nM"}, {"measurement": "Ratio", "setting": "[3]", "result": "> 2"}, {"measurement": "IC50", "setting": "Cytochrome P450 2C19", "result": "> 10000", "unit": "nM"}, {"measurement": "half-life", "setting": "[4]", "result": 1.26, "unit": "h"}, {"measurement": "Vd", "setting": "[5]", "result": 0.33, "unit": "L/kg"}, {"measurement": "IC50", "setting": "[6]", "result": "> 10000", "unit": "nM"}, {"measurement": "fraction unbound", "setting": "[7]", "result": 0.043}, {"measurement": "IC50", "setting": "[8]", "result": 10, "unit": "nM"}, {"measurement": "Cmax", "setting": "[9]", "result": 5.6, "unit": "µM"}, {"measurement": "Activity", "setting": "CT26 [10]", "result": "Active"}, {"measurement": "AUC(0-t) at 24 h", "setting": "[11]", "result": 11.9, "unit": "µM·h"}, {"measurement": "IC50", "setting": "[12]", "result": 21, "unit": "nM"}, {"measurement": "half-life", "setting": "[13]", "result": 2.6, "unit": "h"}, {"measurement": "bioavailability", "setting": "[14]", "result": 28, "unit": "%"}, {"measurement": "half-life", "setting": "[15]", "result": "> 3", "unit": "h"}, {"measurement": "Ratio", "setting": "[16]", "result": "> 3"}, {"measurement": "half-life", "setting": "[17]", "result": 1.5, "unit": "h"}, {"measurement": "Activity", "setting": "CT26 [18]", "result": "Active"}, {"measurement": "IC50", "setting": "Cytochrome P450 2C9", "result": "> 10000", "unit": "nM"}, {"measurement": "fraction unbound", "setting": "[19]", "result": 0.026}, {"measurement": "clearance", "setting": "[20]", "result": 3.65, "unit": "mL/min/kg"}, {"measurement": "Cmax", "setting": "[21]", "result": 5, "unit": "µM"}, {"measurement": "IC50", "setting": "[22]", "result": 220, "unit": "nM"}, {"measurement": "half-life", "setting": "[23]", "result": 0.562, "unit": "h"}, {"measurement": "Activity", "setting": "CT26 [24]", "result": "Active"}, {"measurement": "half-life at 1 µM", "setting": "UGT1A9", "result": 0.9, "unit": "h"}]}]}
